Experimental data from US20110152345A1, “EBI3, DLX5, NPTX1 AND CDKN3 FOR TARGET GENES OF LUNG CANCER THERAPY AND DIAGNOSIS” (Oncotherapy Science, Inc., priority 2007, published 2011).

Tests used:
LC319 cells = assay: MTT assay of LC319 cells treated with cell-permeable 11R-EF-1delta peptides; type: cell-based, human; details: peptide 2.5, 5.0 and 7.5 micro M for 5 days
Description: 19-amino acid peptide sequence corresponding to a part of EF-1delta protein that contained possible binding sites of CDKN3 were covalently linked at its NH2-terminus to a membrane transducing 11 poly-arginine sequence (11R; refs. Futaki et al., Hayama et al., 2006, 2007). Five cell permeable peptides were synthesized: 11R-EF-1delta73-91, RRRRRRRRRRR-GGG-TSGDHGELVVRIASLEVEN; 11R-EF-1delta90-108, RRRRRRRRRRR-GGG-ENQSLRGVVQELQQAISKL; 11R-EF-1delta108-126, RRRRRRRRRRR-GGG-LEARLNVLEKSSPGHRATA; 11R-EF-1delta125-143, RRRRRRRRRRR-GGG-TAPQTQHVSPMRQVEPPAK; 11R-EF-1delta142-160, RRRRRRRRRRR-GGG-AKKPATPAEDDEDDDIDLF. Peptides were purified by preparative reverse-phase high-pressure liquid chromatography. LC319 cells were incubated with the 11R peptides at the concentration of 2.5, 5.0 and 7.5 micro M for 5 days. The medium was changed at every 48 hours at the appropriate concentrations of each peptide and the viability of cells was evaluated by MTT assay at 5 days after the treatment. 12. Immunoprecipitation and MALDI-TOF-MS mapping of CDKN3-Associated Proteins.

CDKN3 and EF-1delta = target: T1, CDKN3 and EF-1delta (Homo sapiens, UniProt Q16667); assay: Immunoprecipitation of endogenous CDKN3 and EF-1delta complex in peptide-treated LC319 cells; type: cell-based; details: peptide added to culture medium
T1 construct: between endogenous CDKN3 and EF-1delta proteins in LC319 cells; endogenous in cells; host or cells: LC319 (human lung adenocarcinoma cell line)
T1 sequence (Q16667 1-212): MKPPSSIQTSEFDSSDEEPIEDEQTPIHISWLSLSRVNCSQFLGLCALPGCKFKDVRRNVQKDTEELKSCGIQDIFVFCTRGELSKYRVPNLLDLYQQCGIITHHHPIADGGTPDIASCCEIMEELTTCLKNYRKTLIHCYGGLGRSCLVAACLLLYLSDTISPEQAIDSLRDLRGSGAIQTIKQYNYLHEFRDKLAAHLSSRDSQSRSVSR
Description: FIG. 24: Identifies the CDKN3-binding region in EF-1delta. Part A presents a schematic drawing of five cell permeable peptides linked covalently at its NH2-terminus to a membrane transducing 11 poly-arginine sequence. The sequence of leucine zipper motif in EF-1delta and five cell permeable peptides derived from EF-1delta are shown. Part B presents the viability of LC319 cells evaluated by MTT assay in response to five cell permeable peptides (upper panel). Reduction of the complex formation detected by immunoprecipitation between endogenous CDKN3 and EF-1delta proteins in LC319 cells that were treated with the 11R-EF-1delta90-108 peptides (lower panel).
Then, to investigate the functional significance of interaction between CDKN3 and EF-1delta for growth or survival of lung-cancer cells, bioactive cell-permeable peptides expected to inhibit the binding of these two proteins were developed. Next 5 different peptides of 19 amino acid sequence that included in codons 73-160 of EF-1delta were synthesized (FIG. 24A). These peptides were covalently linked at NH2-terminalus to a membrane transducing 11 arginine-residues (11R).

With “RRRRRRRRRRR-GGG-ENQSLRGVVQELQQAISKL (RRRRRRRRRRRGGGENQSLRGVVQELQQAISKL) [11R-EF-1delta90-108]” the “cell viability (MTT assay)” value (LC319 cells) was “significant decreases” and the “complex formation between endogenous CDKN3 and EF-1delta” value (CDKN3 and EF-1delta) was “reduced complex formation”.
